From patent US20100069297A1, “Selective Inhibition of TLR4 Signaling” (priority 2005, published 2010) come the findings set out here.

Entries after “also recorded” stand apart in the source; their conditions may differ. Ends that are not written are not given here.

Holding throughout (format): cell-based, mouse
For assay [1], the system named is TLR4 signaling (LPS-induced IL-1β, MIP-1β, IFN-β, RANTES mRNA). Nature of the assay: LPS-induced gene expression in primary murine macrophages, real-time PCR. The settings on record: for effect on induction of IL1-β and IFN-β mRNA (cytokine induction) by LPS: 30 min preincubation with peptide. The procedure:
FIG. 1. Effect of blocking peptides on the cytokine induction by LPS. Thioglycollate-elicited primary murine macrophages were preincubated in the presence of 40 μMof BP for one hour before stimulation with 10 ng/ml of LPS. (A) Quantitative real-time PCR analysis of gene expression. (B) Secretion of IL-1β and IL-6. Concentration of the cytokines was measured after overnight incubation of the cells in the presence of LPS and the peptides. (C) Sensitivity of the LPS-stimulated expression of IFN-β and IL-1β mRNA to varying concentrations of TRAM and MyD88 BP. Total mRNA was isolated 1 hour after LPS stimulation (A and C). *p<0.05; **p<0.01.
FIG. 6. Effect of mutant TRAM BB loop peptides on LPS-induced activation of IL1-β and IFN-β mRNA. Details of the experiments are as described in the legend for FIG. 1, except for the cells were preincubated with peptides only for 30 minutes.
C3H/OuJ mice were purchased from the Jackson Laboratory (Bar Harbor, Me.). Thioglycollate-elicited peritoneal macrophages were harvested and cultured in the presence of E. coli K235 LPS or Pam3Cys as described previously (Salkowski et al., 1999, J. Immunol. 164, 1529).
(§1) Total cellular RNA was extracted from macrophage cultures as described elsewhere and reversed transcribed using AMV Reverse Transcriptase (Promega, Madison, Wis.) and poly-T priming as recommended by the manufacturer. The resulting cDNA was quantified by real time PCR using SYBR Green PCR Master Mix (Applied Biosystems) and ABI Prism 7900HT cycler. Primers for detection of IL-1β, IFN-β, MIP-1β, […]RANTES, and HPRT mRNAs were designed using the Primer Express 2.0 program (Applied Biosystems). Relative gene expression was calculated using ΔCt method with HPRT as a housekeeping gene (1.8̂(CtHPRT−CtGene)) Statistical analysis was performed by one way ANOVA with repeated measures, followed by Dunnett's multiple comparison post hoc test with p≦0.05 chosen as the level of significance.
Mice with targeted mutations in MyD88 (Kawai et al., 2001, supra; Toshchakov et al., 2002, supra) or TIRAP (Yamamoto et al., 2002, Nature 420, 324) retain the capacity to signal through the MyD88-independent pathway. […] Therefore, the first question we sought to address experimentally is whether interactions of the BB-loops of the TIR domains of these adapters affect protein interactions leading to gene expression. To this end, we designed cell permeable peptides whose sequences correspond to the BB-loops of each adapter molecule and measured the ability of each BP to interfere with the induction of immediate response genes induced via MyD88-dependent and independent pathways. […] All BB-loop-containing peptides exerted an inhibitory effect on LPS-induced expression of MyD88-dependent IL-1β and […], as well as MyD88-independent IFN-β and RANTES mRNA, as measured by real-time PCR (FIG. 1A).

For assay [2], the system named is TLR4 signaling (LPS-induced phosphorylation of ERK, JNK, p38). Nature of the assay: LPS-stimulated activation of MAPKs (pERK, pJNK, pP38), Western blot. The note with it: for effect on LPS-induced activation of ERK, cells preincubated with peptides only for 30 minutes: FIG. 5 and 7, 30 min preincubation; for effect on LPS-induced activation of ERK, cells preincubated with peptides only for 30 minutes / inhibition of LPS-induced activation of ERK / effect on LPS-induced activation (phosphorylation) of MAPKs (ERK, JNK): LPS 10 ng/ml; for inhibition of LPS-induced activation of ERK / effect on LPS-induced activation of p38: 40 μM BP; for effect on LPS-induced activation (phosphorylation) of MAPKs (ERK, JNK): 40 μM, 1 h preincubation; for inhibition of phosphorylation of ERK whether or not 100-fold excess LPS was used: peptide increased from 10 μM to 40 μM, LPS 10 ng/nl or 1 μg/ml. The method, then:
(§2) FIG. 2. Effect of blocking peptides on the LPS-stimulated activation of MAPKs and Tyr701 STAT-1. Ten μg of total protein was loaded per lane. A representative blot of three separate experiments is shown. Other details are given in the Materials and Methods section and legend for FIG. 1.
(§3) FIG. 4. Comparative effect of BPs on TLR2-vs. TLR4-mediated activation of MAPKs (A) and IL-1β mRNA expression (B). For Western blot analysis, 4.5 x10^6 primary macrophages were preincubated without or with 40 μM BP and stimulated for 30 min with LPS (10 ng/ml) or Pam3Cys (P3C; 150 ng/ml). The results shown are a representative blot of three separate experiments. Experimental details for FIG. 4B are the same as reported in the legend to FIG. 1A.
FIG. 5. Effect of mutated TRAM BB loop peptides on LPS-induced activation of ERK. Details of the experiment are as in legend for FIG. 4, except for the cells were preincubated with peptides only for 30 minutes.
(§4) SDS-PAGE and Western blot analysis were performed as described previously (Medvedev et al., 2001, J. Immunol. 167, 2257) with minor modifications. Antibodies for detection of activated MAPKs (pERK, pJNK and pP38) were purchased from Cell Signaling Technology (Beverly, Mass.). IRF-1 was detected using a rabbit polyclonal antibody from Santa-Cruz (Santa Cruz, Calif.). Antibody for detection of tyrosine-701 phosphorylated STAT1 was purchased from Zymed Laboratories (San Francisco, Calif.).
Using antibodies specific for the phosphorylated (activated) forms of JNK, ERK, and p38, we next sought to examine the effect of BB-loop-containing inhibitory peptides on LPS-stimulated activation of MAPKs. LPS induces quick and transient activation of MAPKs in primary macrophages (FIG. 2A) that was not affected by the addition of CP. […] The TIRAP BP was the weakest BP; all MAPKs were activated in the presence of it, although to a lesser extent when compared to CP.

Assay [3] has as its system TLR2 signaling (Pam3Cys-induced phosphorylation of ERK, JNK, p38). Nature of the assay: Pam3Cys-induced activation of MAPKs, Western blot. The settings on record: for effect on P3C-induced activation (phosphorylation) of ERK / effect on P3C-induced activation of p38: 40 μM; for effect on P3C-induced activation (phosphorylation) of ERK: P3C 150 ng/ml. The method, then:
as §3, §4
Apart from the use of a CP, we sought to analyze further the specificity of the inhibitory effects of BB-loop peptides on TLR signaling. Therefore, we also tested the effect of the peptides on signal transduction elicited from TLR2.

For assay [4], the system named is TLR2 signaling (Pam3Cys-induced IL-1β mRNA). Nature of the assay: Pam3Cys-induced cytokine mRNA expression, real-time PCR. The method, then: as §3, §1
Similar to their effect on activation of MAPKs, BPs were much weaker inhibitors with respect to Pam3Cys- vs. LPS-induced expression of IL-1β mRNA.

Assay [5] deals with TLR4 signaling (LPS-induced STAT-1 phosphorylation). Nature of the assay: LPS-induced phosphorylation of STAT-1, Western blot. The note with it: 40 μM BP. The procedure: as §2, §4
Assay [6] relates to TLR4 signaling (IRF-3 dimerization). Nature of the assay: LPS-induced dimerization of IRF-3, native PAGE. The settings on record: 100 ng/ml LPS, 1.5 hr. The method, then: (§5) FIG. 3. Effect of blocking peptides on activation of IRF-3 and IRF-1. […] Primary mouse macrophages were stimulated with 100 ng/ml of LPS. Seventeen μg of total protein was loaded per lane of the native gel. Other details are as described in the legend for FIG. 1.
Native PAGE for detection of IRF-3 activation was performed with minor modifications (Iwamura et al., 2001, Genes Cells 6, 375). One×10^7 thioglycollate-elicited cells were plated into a 6 cm dish and washed with PBS to remove non-adherent cells. Primary macrophages were stimulated with 100 ng/ml of LPS for 1.5 hr and lysed in buffer containing 50 mM TRIS-HCl pH 7.5, 150 mM NaCl, 1 mM EDTA, 1% NP-40, 1 mM sodium orthovanadate and 1× Complete protease inhibitor cocktail (Roche, Mannheim, Germany). Lysates were mixed with native lysis buffer (Bio-Rad, Hercules, Calif.) supplemented with 1% deoxycholate. Fifteen to 20 μg protein per lane was electrophoresed on a non-reducing gel and immunoblotted. IRF-3 dimers and monomers were detected using rabbit anti-IRF-3 antibody (Zymed Laboratories) by Western analysis.
Interferon Regulatory Factors (IRFs) were first identified as important transcriptional mediators of the antiviral immune response (reviewed in Taniguchi et al., 2001, Annu. Rev. Immunol. 19, 623). Later, it was recognized that this family of transcription factors plays an essential role in signal transduction mediated by different TLRs. IRF-1 is regulated transcriptionally by signaling from different TLRs, as well as by cytokines induced by TLR engagement (e.g., IL-1, TNF, and IFN-β) (Fujita et al., 1989, Proc. Natl. Acad. Sci. USA 86, 9936). In contrast, IRF-3 is constitutively expressed in many cell types (Au et al., 1995, Proc. Natl. Acad. Sci. USA 92, 11675). Upon stimulation through TLR4 or TLR3, IRF-3 is phosphorylated at multiple sites in its C-terminus, and this modification enables it to dimerize and translocate to the nucleus where it targets IRF-3-responsive genes (Kawai et al., 2001, supra; Lin et al., 1999, Mol. Cell. Biol. 19, 2465).

Assay [7] has as its system TLR4 signaling (IRF-1 protein). Nature of the assay: LPS-induced upregulation of IRF-1 protein, SDS-PAGE/Western. The settings on record: 100 ng/ml LPS, 1.5 h. The procedure:
as §5, §4
Importantly, MyD88 knockout macrophages are capable of inducing IRF-1 mRNA (Yamamoto et al., 2003, supra).

[8] abbreviates: listed as Antennapedia DD loop peptide.

For the sequence IVFAAMPCGRLHLQ [E/A mutant], in assay [1], the “effect on induction of IL1-β and IFN-β mRNA (cytokine induction) by LPS” value (“effect on induction” for short) was “did not affect considerably inhibitory capacity”. Besides, the “effect on LPS-induced activation of ERK, cells preincubated with peptides only for 30 minutes” value in assay [2] is reported as “did not affect considerably inhibitory capacity”.
Consider KYKAMKKDFPSILR [MyD88 DD loop peptide], for which the “effect on induction” value in assay [1] was “not inhibitory”. For the same sequence, the “effect on LPS-induced activation of ERK, cells preincubated with peptides only for 30 minutes” value in assay [2] was “not inhibitory”; in assay [2] (setting [8]), “does not inhibit”. The “effect on P3C-induced activation (phosphorylation) of ERK” value (shortened to “effect … (phosphorylation) of ERK”) is on record as “not inhibitory” in assay [3] and “does not inhibit” in assay [3] (setting [8]). Besides, the “effect on P3C-induced cytokine induction” value in assay [4] is given as “not inhibitory”.
For “RQIKIWFONRRMKWKKFCEEFQVPGRGELH (RQIKIWFQNRRMKWKKFCEEFQVPGRGELH; TRIF blocking peptide) [TRIF-BP]”, in assay [2], the “inhibition of LPS-induced activation of ERK” value is listed as “incomplete” and the “effect on LPS-induced activation (phosphorylation) of MAPKs (ERK, JNK)” value (shortened to “effect on LPS-induced activation … (ERK, JNK)”) is on record as “strongly inhibited”. In assay [5], the “inhibition of LPS-induced Tyr701 phosphorylation of STAT-1” value is recorded as “strongly inhibited”. Moreover, the “inhibition of LPS-induced dimerization of IRF-3” value in assay [6] was “significantly inhibited”. In assay [7], the “effect on LPS-induced upregulation of IRF-1 protein” value is given as “intermediate efficacy”.
As for “RQIKIWFQNRRMKWKKLHERNFVPGKSIVE (TLR1/6 blocking peptide) [TLR1/6-BP]”, the “effect on LPS-induced activation … (ERK, JNK)” value in assay [2] is given as “affected neither”. For the same sequence, the “inhibition of Pam3Cys-induced phosphorylation of MAPKs” value in assay [3] (40 μM BP, Pam3Cys 150 ng/ml, 30 min) is given as “affected neither”.
Consider “RQIKIWFQNRRMKWKKLHKRDFVPGKWIID [TLR2-BP]”, for which the “effect on induction” value in assay [1] was “inhibitory”. In assay [2], the “effect on LPS-induced activation of p38” value is given as “did not inhibit” and the “inhibition of phosphorylation of ERK whether or not 100-fold excess LPS was used” value was “effectively inhibited”. In addition, the “inhibition of LPS-induced activation of ERK” value in assay [2] (listed as TLR2 BB peptide) is given as “potent inhibitors; also recorded: inhibit”. The “effect on P3C-induced activation of p38” value in assay [3] is on record as “did not inhibit”. Also, the “effect … (phosphorylation) of ERK” value in assay [3] (listed as TLR2 BB peptide) is “diminished and delayed; also recorded: to some extent”. The “effect on P3C-induced cytokine induction” value in assay [4] is reported as “inhibitory”.
“RQIKIWFQNRRMKWKKLHYRDFIPGVAIAA [TLR4-BP]”: the “effect on induction” value in assay [1] is reported as “inhibitory”. Moreover, in assay [2], the “effect on LPS-induced activation of p38” value is on record as “did not inhibit” and the “inhibition of phosphorylation of ERK whether or not 100-fold excess LPS was used” value was “effectively inhibited”. The “inhibition of LPS-induced activation of ERK” value in assay [2] (listed as TLR4 BB peptide) is given as “potent inhibitors; also recorded: inhibit”. Further, in assay [3], the “effect on P3C-induced activation of p38” value was “did not inhibit”. In addition, in assay [3] (listed as TLR4 BB peptide), the “effect … (phosphorylation) of ERK” value is “to a lesser extend; also recorded: to some extent”. Besides, the “effect on P3C-induced cytokine induction” value in assay [4] was “inhibitory”.
As to “RQIKIWFQNRRMKWKKSLHGRGDPMEAFII (Control peptide - BLAST generated) [reference compound]”, the “inhibitory effect on LPS-induced expression of IL-1β, MIP-1β, IFN-β and RANTES mRNA” value in assay [1] (40 μM BP, 1 h preincubation, 10 ng/ml LPS, mRNA 1 h after LPS) is listed as “not significantly affected”. In assay [2], the “effect on LPS-induced activation … (ERK, JNK)” value is given as “not affected”. In assay [7], the “effect on LPS-induced upregulation of IRF-1 protein” value is listed as “strong upregulation”. In addition, the “effect on Pam3Cys-induced expression of IL-1β mRNA” value in assay [4] (40 μM, Pam3Cys) was “not significantly affected”.
